Test results from patent US20120302598A1, “IMIDAZOPYRIDINONES” (PFIZER LIMITED, priority 2007, published 2012).
Values joined by “and” are separate entries in the source; they are usually repeats but may differ in a detail not shown here. Equal entries are not always repeated.

Columns and labels:
[1] = biological target: T1, TLR7 (Homo sapiens, UniProt Q9NYK1); test: PBL/HCV replicon bioassay; format: cell-based; settings: read-out: EC50 (nM) (n = no. of experiments)
T1 construct: PBL contain as a subpopulation plasmacytoid dendritic cells which are the natural interferon producing cells; endogenous in cells; host or cells: peripheral blood lymphocytes (PBL), containing plasmacytoid dendritic cells
T1 sequence (Q9NYK1 27-1049): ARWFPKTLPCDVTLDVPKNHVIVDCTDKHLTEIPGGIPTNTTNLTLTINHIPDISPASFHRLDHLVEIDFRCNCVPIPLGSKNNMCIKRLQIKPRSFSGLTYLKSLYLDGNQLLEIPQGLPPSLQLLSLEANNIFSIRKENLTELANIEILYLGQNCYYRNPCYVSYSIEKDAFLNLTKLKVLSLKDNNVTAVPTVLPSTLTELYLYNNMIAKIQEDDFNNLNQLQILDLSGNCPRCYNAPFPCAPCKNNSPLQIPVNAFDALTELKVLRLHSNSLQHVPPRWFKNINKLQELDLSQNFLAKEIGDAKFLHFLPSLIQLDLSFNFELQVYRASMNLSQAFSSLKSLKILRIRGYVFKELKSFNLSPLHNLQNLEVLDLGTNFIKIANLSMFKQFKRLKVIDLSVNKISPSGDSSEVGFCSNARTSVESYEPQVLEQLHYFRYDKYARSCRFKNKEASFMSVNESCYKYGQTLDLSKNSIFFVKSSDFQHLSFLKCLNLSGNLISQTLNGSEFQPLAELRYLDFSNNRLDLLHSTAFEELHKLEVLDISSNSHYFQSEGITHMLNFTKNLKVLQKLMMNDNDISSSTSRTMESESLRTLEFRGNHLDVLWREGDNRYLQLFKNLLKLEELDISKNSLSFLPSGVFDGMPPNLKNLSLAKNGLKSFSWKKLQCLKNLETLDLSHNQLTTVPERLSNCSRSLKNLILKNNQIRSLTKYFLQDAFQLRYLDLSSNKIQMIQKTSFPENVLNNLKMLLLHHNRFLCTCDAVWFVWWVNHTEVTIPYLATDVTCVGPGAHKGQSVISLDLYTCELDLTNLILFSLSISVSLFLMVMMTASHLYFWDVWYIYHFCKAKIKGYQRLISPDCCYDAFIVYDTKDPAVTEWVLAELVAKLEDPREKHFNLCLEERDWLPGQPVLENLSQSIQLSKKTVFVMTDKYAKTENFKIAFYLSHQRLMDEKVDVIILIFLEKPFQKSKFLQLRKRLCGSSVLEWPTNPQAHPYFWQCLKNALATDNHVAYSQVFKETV
From the text: EMCV: Encephalomyocarditis virus IRES: Internal ribosmomal entry site Huh: Huh-7 human hepatoma cell line 7 (parental cells used to generate HCV replicon cell lines) IUC: luciferase ubi: ubiquitin neo: neomycin ET: glutamic acid, threonine (cell culture adaptive mutations in the replicon used in the assay) RPMI-FCS: Roswell Park Memorial Institute (cell culture medium for PBL)—Foetal Calf Serum PBL: peripheral blood lymphocytes
PBL contain as a subpopulation plasmacytoid dendritic cells which are the natural interferon producing cells during an infection and as such are an excellent model in which to profile interferon inducers. As an extremely sensitive antiviral bioassay, supernatant taken from PBL is assayed for antiviral activity in the HCV replicon system.
The HCV replicon (Huh-5-2[l389 luc-ubi-neo-NS3-3′/ET]) is an in vitro model of HCV replication in which the luciferase reporter is incorporated into HCV sequences and stably maintained in the human hepatoma cell line Huh-7. The firefly luciferase reporter is expressed as a luciferase-ubiquitin-neomycin phosphotransferase fusion protein which is cleaved by host proteases to release luciferase. […] Firefly luciferase activity is detected using a Bright-Glo™ Luciferase Assay System manufactured by Promega. […]

[2] = tested on: HCV replicon containing cells; test: Direct response of HCV replicon containing cells to TLR agonists; format: cell-based, human; settings: compound applied directly to replicon cells, not via PBL conditioned medium

EC50 [1] | SMILES | direct response of HCV replicon containing cells to the TLR agonist [2]
698 nM and 1240 nM and 1160 nM and 3700 nM and 475 nM and 1430 nM and 1040 nM and 583 nM and 1010 nM and 737 nM | Cc1ccc(Cn2c(=O)[nH]c3c(N)nc(OCC4CCCO4)cc32)cn1 (stereo not drawn) [Example 5, 4-Amino-1-(6-methyl-pyridin-3-ylmethyl)-6-(tetrahydro-furan-2-R/S-ylmethoxy)-1,3-dihydro-imidazo[4,5-c]pyridin-2-one] | 
> 4000 nM and 1920 nM and 1000 nM and 1450 nM and 1940 nM and 1470 nM and 1250 nM and 1580 nM | Cc1ccc(Cn2c(=O)[nH]c3c(N)nc(OC[C@H]4CCCO4)cc32)cn1 [Example 6, 4-Amino-1-(6-methyl-pyridin-3-ylmethyl)-6-(tetrahydro-furan-2-R-ylmethoxy)-1,3-dihydro-imidazo[4,5-c]pyridin-2-one] | 
 | CC(C)Cn1cnc2c(N)nc3ccccc3c21 [Imiquimod] | do not respond directly
